Results taken from patent US5530126A, “Process for the preparation of substituted 6-(pyrazol-3yl)-1,4-benzoxazin-3-ones” (Monsanto Company, priority 1994, dated 1996).

How the values were obtained:
Assay type in all cases: in vivo
Morningglory [1] = experiment: Post-emergence herbicide test; conditions: Ipomoea, read-out: % plant inhibition (Mogl); for inhibition at 1120 g/ha: 1.12 kg/ha
Outline: (§1)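 Foliar spray trial in greenhouse pans: two- to three-week-old plants treated at 200 gallons/acre by atomizer, spray containing about 0.4% emulsifier. Percent inhibition compared with untreated controls was recorded around day 11.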

Wild buckwheat [2] = experiment: Post-emergence herbicide test; conditions: Fallopia convolvulus, read-out: % plant inhibition (Wibw); for inhibition at 1120 g/ha: 1.12 kg/ha
Outline: as §1

Indian Mustard [3] = experiment: Post-emergence herbicide test; conditions: Brassica juncea, read-out: % plant inhibition (Inmu); for inhibition at 1120 g/ha: 1.12 kg/ha
Outline: as §1

Yellow nutsedge [4] = experiment: Post-emergence herbicide test; conditions: Cyperus, read-out: % plant inhibition (Yens); for inhibition at 1120 g/ha: 1.12 kg/ha
Outline: as §1

Barnyardgrass [5] = experiment: Post-emergence herbicide test; conditions: Echinochloa crus-galli, read-out: % plant inhibition (Bygr); for inhibition at 1120 g/ha: 1.12 kg/ha
Outline: as §1

Annual bluegrass [6] = experiment: Post-emergence herbicide test; conditions: read-out: % plant inhibition (Anbg); for inhibition at 1120 g/ha: 1.12 kg/ha
Outline: as §1

Velvetleaf [7] = experiment: Post-emergence herbicide test; conditions: Abutilon theophrasti, read-out: % plant inhibition (Vele); for inhibition at 1120 g/ha: 1.12 kg/ha
Outline: as §1

Seedling johnsongrass [8] = experiment: Post-emergence herbicide test; conditions: Sorghum halepense, read-out: % plant inhibition (Sejg); for inhibition at 1120 g/ha: 1.12 kg/ha
Outline: as §1

Cocklebur [9] = experiment: Post-emergence herbicide test; conditions: Xanthium strumarium, read-out: % plant inhibition (Cobu); for inhibition at 1120 g/ha: 1.12 kg/ha
Outline: as §1

Downy Brome [10] = experiment: Post-emergence herbicide test; conditions: Bromus tectorum, read-out: % plant inhibition (Dobr); for inhibition at 1120 g/ha: 1.12 kg/ha
Outline: as §1

Morningglory [11] = experiment: Pre-emergence herbicide test; conditions: Ipomoea, read-out: % plant inhibition (Mogl); for inhibition at 1120 g/ha: 1.12 kg/ha
Outline: (§2)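 In this greenhouse test, seeds on compacted topsoil receive the active ingredient in an organic solvent or aqueous carrier, are covered with untreated soil and watered from below; percent inhibition is scored approximately 11 days later.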

Wild buckwheat [12] = experiment: Pre-emergence herbicide test; conditions: Fallopia convolvulus, read-out: % plant inhibition (Wibw); for inhibition at 1120 g/ha: 1.12 kg/ha
Outline: as §2

Indian Mustard [13] = experiment: Pre-emergence herbicide test; conditions: Brassica juncea, read-out: % plant inhibition (Inmu); for inhibition at 1120 g/ha: 1.12 kg/ha
Outline: as §2

Yellow nutsedge [14] = experiment: Pre-emergence herbicide test; conditions: Cyperus, read-out: % plant inhibition (Yens); for inhibition at 1120 g/ha: 1.12 kg/ha
Outline: as §2

Barnyardgrass [15] = experiment: Pre-emergence herbicide test; conditions: Echinochloa crus-galli, read-out: % plant inhibition (Bygr); for inhibition at 1120 g/ha: 1.12 kg/ha
Outline: as §2

Annual bluegrass [16] = experiment: Pre-emergence herbicide test; conditions: read-out: % plant inhibition (Anbg); for inhibition at 1120 g/ha: 1.12 kg/ha
Outline: as §2

Velvetleaf [17] = experiment: Pre-emergence herbicide test; conditions: Abutilon theophrasti, read-out: % plant inhibition (Vele); for inhibition at 1120 g/ha: 1.12 kg/ha
Outline: as §2

Seedling johnsongrass [18] = experiment: Pre-emergence herbicide test; conditions: Sorghum halepense, read-out: % plant inhibition (Sejg); for inhibition at 1120 g/ha: 1.12 kg/ha
Outline: as §2

Cocklebur [19] = experiment: Pre-emergence herbicide test; conditions: Xanthium strumarium, read-out: % plant inhibition (Cobu); for inhibition at 1120 g/ha: 1.12 kg/ha
Outline: as §2

Downy Brome [20] = experiment: Pre-emergence herbicide test; conditions: Bromus tectorum, read-out: % plant inhibition (Dobr); for inhibition at 1120 g/ha: 1.12 kg/ha
Outline: as §2

SMILES | inhibition at 1120 g/ha (Morningglory [1]) | inhibition at 1120 g/ha (Wild buckwheat [2]) | inhibition at 1120 g/ha (Indian Mustard [3]) | inhibition at 1120 g/ha (Yellow nutsedge [4]) | inhibition at 1120 g/ha (Barnyardgrass [5]) | inhibition at 1120 g/ha (Annual bluegrass [6]) | inhibition at 1120 g/ha (Velvetleaf [7]) | inhibition at 1120 g/ha (Seedling johnsongrass [8]) | inhibition at 1120 g/ha (Cocklebur [9]) | inhibition at 1120 g/ha (Downy Brome [10]) | inhibition at 1120 g/ha (Morningglory [11]) | inhibition at 1120 g/ha (Wild buckwheat [12]) | inhibition at 1120 g/ha (Indian Mustard [13]) | inhibition at 1120 g/ha (Yellow nutsedge [14]) | inhibition at 1120 g/ha (Barnyardgrass [15]) | inhibition at 1120 g/ha (Annual bluegrass [16]) | inhibition at 1120 g/ha (Velvetleaf [17]) | inhibition at 1120 g/ha (Seedling johnsongrass [18]) | inhibition at 1120 g/ha (Cocklebur [19]) | inhibition at 1120 g/ha (Downy Brome [20]) | other results
Cc1cc(-c2nn(C)c(C(F)(F)F)c2Cl)c(F)cc1Cl [Compound 124] | – | – | – | – | – | – | – | – | – | – | – | – | – | – | – | – | – | – | – | – | inhibition at 11210 g/ha (Morningglory [1]; 11.21 kg/ha): 100%; inhibition at 11210 g/ha (Wild buckwheat [2]; 11.21 kg/ha): 100%; inhibition at 11210 g/ha (Indian Mustard [3]; 11.21 kg/ha): 90%; inhibition at 11210 g/ha (Yellow nutsedge [4]; 11.21 kg/ha): 20%; inhibition at 11210 g/ha (Barnyardgrass [5]; 11.21 kg/ha): 90%; inhibition at 11210 g/ha (Annual bluegrass [6]; 11.21 kg/ha): 70%; inhibition at 11210 g/ha (Velvetleaf [7]; 11.21 kg/ha): 100%; inhibition at 11210 g/ha (Seedling johnsongrass [8]; 11.21 kg/ha): 100%; inhibition at 11210 g/ha (Cocklebur [9]; 11.21 kg/ha): 70%; inhibition at 11210 g/ha (Downy Brome [10]; 11.21 kg/ha): 50%; inhibition at 11210 g/ha (Morningglory [11]; 11.21 kg/ha): 100%; inhibition at 11210 g/ha (Wild buckwheat [12]; 11.21 kg/ha): 100%; inhibition at 11210 g/ha (Indian Mustard [13]; 11.21 kg/ha): 100%; inhibition at 11210 g/ha (Yellow nutsedge [14]; 11.21 kg/ha): 20%; inhibition at 11210 g/ha (Barnyardgrass [15]; 11.21 kg/ha): 100%; inhibition at 11210 g/ha (Annual bluegrass [16]; 11.21 kg/ha): 100%; inhibition at 11210 g/ha (Velvetleaf [17]; 11.21 kg/ha): 100%; inhibition at 11210 g/ha (Seedling johnsongrass [18]; 11.21 kg/ha): 100%; inhibition at 11210 g/ha (Cocklebur [19]; 11.21 kg/ha): 100%; inhibition at 11210 g/ha (Downy Brome [20]; 11.21 kg/ha): 100%
Cc1cc(-c2nn(C)c(C(F)(F)F)c2Br)c(F)cc1Cl [Compound 125] | 30% | 100% | 30% | 0% | 0% | 20% | 100% | 0% | 40% | 0% | 90% | 100% | 100% | 0% | 100% | 100% | 100% | 100% | 30% | 90% | –
Cc1cc(-c2nn(C)c(C(F)F)c2Cl)c(F)cc1Cl [Compound 126] | 60% | 80% | 40% | 10% | 50% | 40% | 90% | 30% | 30% | 0% | 100% | 100% | 100% | 0% | 100% | 100% | 100% | 100% | 50% | 100% | –
CCOC(=O)C(C)=Cc1cc(-c2nn(C)c(C(F)(F)F)c2Cl)c(F)cc1Cl [Compound 127] | 100% | 100% | 100% | 20% | 60% | 20% | 100% | 100% | 100% | 80% | 70% | 100% | 90% | 0% | 30% | 0% | 100% | 20% | 20% | 0% | –
